From article PMC9655717, “New Molecules of Diterpene Origin with Inhibitory Properties toward α-Glucosidase” (International Journal of Molecular Sciences, 2022) come the findings set out here.

For test [1], the target named is T1, yeast α-GLy (α-glucosidase, Sigma G0660) (Saccharomyces cerevisiae, UniProt P53341).
T1 construct: purchased Sigma G0660
The test is described as follows: biochemical. The test is classed as biochemical. As to conditions: yeast α-glucosidase, 37°C, pH 6.8; read-out: IC50 ± SE, α-glucosidase inhibition.

A short description of test [2]: DPPH radical scavenging assay. As to conditions: DPPH 0.1 mM in methanol, 25°C, 30 min. As for the experimental part:
DPPH radical scavenging assay as described by Ha. The hydrogen atom donating ability of the plant extractives was determined by the decolorization of methanol solution of 2,2-diphenyl-1-picrylhydrazyl (DPPH). DPPH produces purple color in methanol solution and fades to shades of yellow color in the presence of antioxidants. […]
DPPH (0.1 mM) was diluted in methanol. 200 μL of this solution was added to 1.3 μL of various concentrations of compounds in DMSO (256.0, 64.0, 16.0, and 4.0 μg/mL). The mixture was performed by a 96-well plate at 25 °C in 30 min. Then, absorbance was determined by Epoch™ Microplate Spectrophotometer (at 517 nm). The percentage of DPPH quenching activity was computed by the following formula:
Inhibitory percentage SC (%) = [(Ao - A1)/Ao] × 100. where AO was defined as the absorbance of control reaction, and A1 represented for the absorbance in the presence of test or standard sample. Each experiment was repeated three times. Quercetin was used as a reference compound. […]

The test system of test [3] is Bacillus subtilis (ATCC 6633). The test is described as follows: Antimicrobial broth microdilution. The test is classed as cell-based. The note with it: ATCC6633, B. subtilis. As for the experimental part: (§1) Table S2. The result of antimicrobial tests of compounds 38, 45, 48 and 50.
(§2) Gram (+) strains Gram (-) strains Fungi
(§3) Compound Values (µg/ml) S. aureus B. L. S. E. P. C. subtilis fermentum enterica coli aeruginosa albican
(§4) The antimicrobial activity was determined by broth microdilution method as reported by. Broth dilution testing is one of the common methods used for determination of the MICs and IC50. The compounds are examined for visible bacterial growth as evidenced by turbidity. […]
(§5) S1.5. In vitro antimicrobial activity study of compounds 38, 45, 48 and 50 The Gram-positive bacteria: Bacillus subtilis (ATCC 6633), Lactobacillus fermentum (N4), Staphylococcus aureus (ATCC 13709); Gram -negative bacteria: Escherichia coli (ATCC 25922), Pseudomonas aeruginosa (ATCC 15442), Salmonella enterica; Yeast: Candida albicans (ATCC 10231) were obtained from American Type Culture Collection. The bacterial […]
(§6) Sabourand 2% dextrose broth, were purchased from Merck. […]
(§7) remaining at –80 0 C. Before assay, they were activated by culture medium and, adjusted the concentration to 5x10^5 CFU/mL. 10 μL of each concentration of each test […]
(§8) further incubated at 37 °C within 16-24h. The experiment was triplicated. Positive […]
(§9) medium without bacteria as a negative control. Ampicillin was used as a reference […]
(§10) inhibiting 50% the visible growth of the tested microorganisms. MIC, IC50 values are typically expressed as molar concentration. […]
(§11) treated with sample different concentrations on 96-well plates. Untreated cells represented the controls. […]
(§12) crystals are visible. Remove MTT and add DMSO solution (100 μL). The optical density […]
(§13) are evaluated to have cytotoxic activity.

For test [4], the system named is Candida albicans (ATCC 10231). The test is described as follows: Antimicrobial broth microdilution. The test is classed as cell-based. As to conditions: ATCC10231, C. albican. As for the experimental part:
as §1, §2, §3, §4, §5, §6, §7, §8, §9, §10, §11, §12, §13

Test [5] deals with Escherichia coli (ATCC 25922). As to the kind of experiment: Antimicrobial broth microdilution. The test is classed as cell-based. As to conditions: ATCC25922, E. coli. As for the experimental part:
as §1, §2, §3, §4, §5, §6, §7, §8, §9, §10, §11, §12, §13

Test [6] relates to Lactobacillus fermentum (N4). As to the kind of experiment: Antimicrobial broth microdilution. As to conditions: L. fermentum. The test is classed as cell-based. As for the experimental part: as §1, §2, §3, §4, §5, §6, §7, §8, §9, §10, §11, §12, §13
In test [7] the test system is Pseudomonas aeruginosa (ATCC 15442). The test is described as follows: Antimicrobial broth microdilution. The test is classed as cell-based. The note with it: ATCC15442, P. aeruginosa. As for the experimental part: as §1, §2, §3, §4, §5, §6, §7, §8, §9, §10, §11, §12, §13
Background: Dilution methods test growth across graded concentrations, often in twofold steps.

For test [8], the system named is Salmonella enterica. As to the kind of experiment: Antimicrobial broth microdilution. The test is classed as cell-based. As to conditions: S. enterica. As for the experimental part: as §1, §2, §3, §4, §5, §6, §7, §8, §9, §10, §11, §12, §13
The test system of test [9] is Staphylococcus aureus (ATCC 13709). The test is described as follows: Antimicrobial broth microdilution. The test is classed as cell-based. The note with it: ATCC13709, S. aureus. As for the experimental part:
as §1, §2, §3, §4, §5, §6, §7, §8, §9, §10, §11, §12, §13

T1 sequence (P53341 whole entry): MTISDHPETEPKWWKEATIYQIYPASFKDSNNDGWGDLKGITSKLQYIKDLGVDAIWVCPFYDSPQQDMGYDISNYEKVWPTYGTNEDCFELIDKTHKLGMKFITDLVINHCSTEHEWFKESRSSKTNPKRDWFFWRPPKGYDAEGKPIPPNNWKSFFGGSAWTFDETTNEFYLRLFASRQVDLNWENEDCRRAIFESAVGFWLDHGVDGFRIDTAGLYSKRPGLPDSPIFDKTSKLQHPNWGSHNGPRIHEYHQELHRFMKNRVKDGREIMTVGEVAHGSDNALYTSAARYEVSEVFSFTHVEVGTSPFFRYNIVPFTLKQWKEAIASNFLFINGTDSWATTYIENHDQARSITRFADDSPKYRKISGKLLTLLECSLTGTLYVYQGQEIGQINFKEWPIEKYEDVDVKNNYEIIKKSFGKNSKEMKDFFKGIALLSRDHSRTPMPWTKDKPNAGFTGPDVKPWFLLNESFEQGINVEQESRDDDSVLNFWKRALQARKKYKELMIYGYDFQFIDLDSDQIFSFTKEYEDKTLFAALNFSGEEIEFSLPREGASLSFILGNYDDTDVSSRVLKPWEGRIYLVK

Turning to `C#CCOC(=O)C1(C)CCCC2(C)C1CCC13C=C(C(C)C)C(CC12)c1c(O)cc2c(C(=O)OC)c(C)[nH]c2c13` (stereo not shown) [Compound 45, Methyl 7-propynyl 1-hydroxy-13-isopropyl-7,10a,2′-trimethyl-5,6,6b,7,8,9,10,10a,10b,11,12,13-dodecahydro-12,4b-ethenophenanthro [2,1-g]indole-7,1′-dicarboxylate], the half-maximal inhibitory concentration (IC50) in [1] is 150 ± 8 nM; in test [3], above 256 µg/mL; in test [4], above 256 µg/mL; in [5], above 256 µg/mL; in test [6] it was above 256 µg/mL; in test [7] it was above 256 µg/mL. Moreover, the IC50 in test [8] and in test [9] was above 256 µg/mL throughout. The “IC50 values, antioxidant test (DPPH)” value in test [2] was above 256 µg/mL. Also, the MIC in test [3], in test [4], in test [5], in test [6], in [7] and in test [8] was above 256 µg/mL in each case. This molecule also registered an MIC in test [9] above 256 µg/mL.

For orientation: IC50 means the concentration needed to halve the response being measured. Usually MIC stands for the lowest concentration that inhibits growth of the organism. The low end stands for greater potency, the high end for weaker potency.
